From patent US20160242416A1, “FUNGICIDAL ISOXAZOLINE CARBINOLS” (E I DU PONT DE NEMOURS AND COMPANY, priority 2015, published 2016)
Where two headings read alike, the source gives them in different places.

Experiments:
[1] = tested on: Plasmopara viticola; test: Test A: grape downy mildew, preventive spray on grape seedlings; format: in vivo; settings: 100 = 100% disease control, 0 = no control
Text: A dash (-) indicates no test results.

[2] = tested on: Phytophthora infestans; format: in vivo; settings: 100 = 100% disease control; for Test C rating (% disease control): tomato late blight, 0 = no control
[3] = tested on: Botrytis cinerea; test: Test B: gray mold, preventive spray on tomato seedlings; settings: 100 = 100% disease control; for Test B rating (% disease control): gray mold on tomato, 0 = no control
Text: (§1) General protocol for preparing test solutions for Tests A-G: the test compounds were first dissolved in acetone in an amount equal to 3% of the final volume and then suspended at the desired concentration (in ppm) in acetone and purified water (50/50 mix by volume) containing 250 ppm of the surfactant PEG400 (polyhydric alcohol esters). The resulting test suspensions were then used in Tests A-G. Compounds were sprayed at a concentration of 50 ppm (*) or 10 ppm to the point of run-off on the test plants, the equivalent of a rate of 200 g/ha or 40 g/ha, respectively.
The test solution was sprayed to the point of run-off on tomato seedlings. The following day the seedlings were inoculated with a spore suspension of Botrytis cinerea (the causal agent of gray mold on many crops) and incubated in a saturated atmosphere at 20° C. for 48 h, and moved to a growth chamber at 27° C. for 2 days, after which time visual disease ratings were made.
(§2) Compounds with an asterisks (*) were applied at a concentration of 50 ppm, otherwise test solutions were applied at 10 ppm.

[4] = tested on: Puccinia recondita f sp. tritici; test: Test F: wheat leaf rust, preventive spray on wheat seedlings; settings: 100 = 100% disease control; for Test F rating (% disease control): wheat leaf rust, 0 = no control
Text: as §1
The test solution was sprayed to the point of run-off on wheat seedlings. The following day the seedlings were inoculated with a spore suspension of Puccinia recondita f sp. tritici; (the causal agent of wheat leaf rust) and incubated in a saturated atmosphere at 20° C. for 24 h, and then moved to a growth chamber at 20° C. for 6 days, after which time visual disease ratings were made.
A dash (-) indicates no test results. Compounds with an asterisks (*) were applied at a concentration of 50 ppm, otherwise test solutions were applied at 10 ppm.

[5] = tested on: Zymoseptoria tritici; test: Test E: wheat leaf blotch, preventive spray on wheat seedlings; settings: 100 = 100% disease control; for Test E rating (% disease control): wheat leaf blotch, 0 = no control
Text: as §1
The test solution was sprayed to the point of run-off on wheat seedlings. The following day the seedlings were inoculated with a spore suspension of Zymoseptoria tritici (the causal agent of wheat leaf blotch) and incubated in a saturated atmosphere at 24° C. for 48 h, and then moved to a growth chamber at 20° C. for 17 days, after which time visual disease ratings were made.
as §2

[6] = tested on: Stagonospora nodorum; test: Test D: wheat glume blotch, preventive spray on wheat seedlings; settings: 100 = 100% disease control; for Test D rating (% disease control): wheat glume blotch, 0 = no control
[7] = tested on: Erysiphe graminis f sp. tritici; test: Test G: wheat powdery mildew, preventive spray on wheat seedlings; settings: 100 = 100% disease control; for Test G rating (% disease control): wheat powdery mildew, 0 = no control
[8] = 50 ppm test solution (asterisked compounds), 0 = no control relative to controls

Compound | Test A rating (% disease control) ([1]; 10 ppm) [%] | Test C rating (% disease control) ([2]; 10 ppm) [%] | Test B rating (% disease control) ([3]; 10 ppm) [%] | Test F rating (% disease control) ([4]; 10 ppm) [%] | Test E rating (% disease control) ([5]; 10 ppm) [%] | Test D rating (% disease control) ([6]; 10 ppm) [%] | Test G rating (% disease control) ([7]; 10 ppm) [%] | other results
OC(Cn1cncn1)(C1=NOC(Cn2ccc(-c3ccc(C(F)(F)F)cc3)n2)C1)c1ccc(Cl)cc1 (single isomer, unassigned) [Compound 68] | 3 | 0 | 0 | 99 | 2 | 0 | 95 | –
OC(Cn1cncn1)(C1=NOC(Cn2ccc(-c3ccc(Cl)cc3)n2)C1)c1ccc(Cl)cc1 (single isomer, unassigned) [Compound 65] | 3 | 0 | 0 | 100 | 0 | 0 | 98 | –
OC(Cc1ccc(Cl)cc1)(Cn1cncn1)C1=NOC(c2ccc(Cl)cc2)C1 (single isomer, unassigned) [Compound 94] | 0 | 0 | 0 | 100 | 0 | 98 | 99 | –
CC(O)(Cn1cncn1)C1=NOC(c2ccc(Cl)cc2)C1 (single isomer, unassigned) [Compound 35] | – | – | – | – | – | – | – | Test A rating (% disease control) ([1]; 50 ppm (asterisk)): 21%; Test C rating (% disease control) ([2]; 50 ppm (asterisk)): 0%; Test B rating (% disease control) ([3]; 50 ppm (asterisk)): 0%; Test F rating (% disease control) ([4]; 50 ppm (asterisk)): 40%; Test E rating (% disease control) ([5]; 50 ppm (asterisk)): 0%; Test D rating (% disease control) ([6]; 50 ppm (asterisk)): 63%; Test G rating (% disease control) ([7]; 50 ppm (asterisk)): 100%
CCC(O)(Cn1cncn1)C1=NOC(c2ccc(Cl)cc2)C1 (mixture of isomers) [Compound 34] | – | – | – | – | – | – | – | Test A rating (% disease control) ([1]; 50 ppm (asterisk)): 34%; Test C rating (% disease control) ([2]; 50 ppm (asterisk)): 0%; Test B rating (% disease control) ([3]; 50 ppm (asterisk)): 0%; Test F rating (% disease control) ([4]; 50 ppm (asterisk)): 53%; Test E rating (% disease control) ([5]; 50 ppm (asterisk)): 0%; Test D rating (% disease control) ([6]; 50 ppm (asterisk)): 99%; Test G rating (% disease control) ([7]; 50 ppm (asterisk)): 100%
C=CCC(O)(Cn1cncn1)C1=NOC(c2ccc(Cl)cc2)C1 (single isomer, unassigned) [Compound 85] | 19 | 0 | 0 | 0 | 0 | 68 | 87 | –
OC(Cc1ccc(Cl)cc1)(Cn1cncn1)C1=NOC(c2ccc(Cl)cc2)C1 (single isomer, unassigned) [Compound 93] | 0 | 0 | 0 | 100 | 4 | 99 | 100 | –
CCCC(O)(Cn1cncn1)C1=NOC(c2ccc(Cl)cc2)C1 (single isomer, unassigned) [Compound 83] | 1 | 0 | 0 | 99 | 0 | 87 | 99 | –
OC(Cn1cncn1)(C1=NOC(COc2ccc(Cl)cc2)C1)c1ccc(Cl)cc1 (single isomer, unassigned) [Compound 61] | 4 | 0 | 0 | 100 | 99 | 94 | 100 | –
CCCC(O)(Cn1cncn1)C1=NOC(c2ccc(Cl)cc2)C1 (single isomer, unassigned) [Compound 82] | 1 | 0 | 33 | 98 | 0 | 99 | 100 | –
OC(Cn1cncn1)(C1=NOC(c2ccc(-n3cncn3)cc2)C1)c1ccc(Cl)cc1 (mixture of isomers) [Compound 2] | 33 | 0 | 0 | 100 | 0 | 0 | 99 | –
C=CCC(O)(Cn1cncn1)C1=NOC(c2ccc(Cl)cc2)C1 (single isomer, unassigned) [Compound 84] | 11 | 0 | 94 | 9 | 0 | 73 | 95 | –
OC(Cn1cncn1)(C1=NOC(COc2ccc(Cl)cc2)C1)c1ccc(Cl)cc1 (single isomer, unassigned) [Compound 62] | 3 | 0 | 0 | 92 | 0 | 0 | 96 | –
CC(C)(C)C1CC(C(O)(Cn2cncn2)c2ccccc2)=NO1 (single isomer, unassigned) [Compound 124] | – | – | – | – | – | – | – | Test C rating (% disease control) ([2]; 50 ppm (asterisk)): 0%; Test B rating (% disease control) ([3]; 50 ppm (asterisk)): 0%; Test F rating (% disease control) ([4]; 50 ppm (asterisk)): 28%; Test E rating (% disease control) ([5]; 50 ppm (asterisk)): 6%; Test D rating (% disease control) ([6]; 50 ppm (asterisk)): 0%; Test G rating (% disease control) ([7]; 50 ppm (asterisk)): 96%
CC(C)C(O)(Cn1cncn1)C1=NOC(c2ccc(Cl)cc2)C1 (single isomer, unassigned) [Compound 4] | 0 | 0 | 9 | 98 | 0 | 100 | 99 | –
OC(Cn1cncn1)(C1=NOC(Cn2ccc(-c3ccc(C(F)(F)F)cc3)n2)C1)c1ccc(Cl)cc1 (single isomer, unassigned) [Compound 67] | 13 | 0 | 0 | 100 | 0 | 0 | 99 | –
OC(Cn1cncn1)(C1=NOC(c2ccc(F)cc2)C1)c1ccccc1 (mixture of isomers) [Compound 116] | – | – | – | – | – | – | – | Test C rating (% disease control) ([2]; 50 ppm (asterisk)): 0%; Test B rating (% disease control) ([3]; 50 ppm (asterisk)): 0%; Test F rating (% disease control) ([4]; 50 ppm (asterisk)): 80%; Test E rating (% disease control) ([5]; 50 ppm (asterisk)): 0%; Test D rating (% disease control) ([6]; 50 ppm (asterisk)): 100%; Test G rating (% disease control) ([7]; 50 ppm (asterisk)): 99%
OC(Cn1cncn1)(C1=NOC(c2ccc(Cl)cc2)C1)c1ccc(F)cc1F (single isomer, unassigned) [Compound 130] | – | – | – | – | – | – | – | Test C rating (% disease control) ([2]; 50 ppm (asterisk)): 0%; Test B rating (% disease control) ([3]; 50 ppm (asterisk)): 14%; Test F rating (% disease control) ([4]; 50 ppm (asterisk)): 100%; Test E rating (% disease control) ([5]; 50 ppm (asterisk)): 11%; Test D rating (% disease control) ([6]; 50 ppm (asterisk)): 100%; Test G rating (% disease control) ([7]; 50 ppm (asterisk)): 100%
OC(Cn1cncn1)(C1=NOC(COc2ccc(C(F)(F)F)cc2)C1)c1ccc(Cl)cc1 (single isomer, unassigned) [Compound 63] | 3 | 0 | 0 | 100 | 97 | 41 | 100 | –
OC(Cn1cncn1)(C1=NOC(COc2ccc(C(F)(F)F)cc2)C1)c1ccc(Cl)cc1 (single isomer, unassigned) [Compound 64] | 12 | 0 | 0 | 80 | 2 | 50 | 94 | –
OC(Cn1cncn1)(C1=NOC(Cc2ccccc2)C1)c1ccc(Cl)cc1 (single isomer, unassigned) [Compound 136] | – | – | – | – | – | – | – | Test C rating (% disease control) ([2]; 50 ppm (asterisk)): 0%; Test B rating (% disease control) ([3]; 50 ppm (asterisk)): 92%; Test F rating (% disease control) ([4]; 50 ppm (asterisk)): 100%; Test E rating (% disease control) ([5]; 50 ppm (asterisk)): 83%; Test D rating (% disease control) ([6]; 50 ppm (asterisk)): 100%; Test G rating (% disease control) ([7]; 50 ppm (asterisk)): 100%
OC(Cn1cncn1)(C1=NOC(c2ccccc2)(C(F)(F)F)C1)c1ccc(Cl)cc1 (single isomer, unassigned) [Compound 214] | – | – | – | – | – | – | – | Test C disease control rating [2, 8]: 0%; Test B disease control rating [3, 8]: 0%; Test F disease control rating [4, 8]: 25%; Test E disease control rating [5, 8]: 1%; Test D disease control rating [6, 8]: 0%; Test G disease control rating [7, 8]: 99%
